Measured values published in patent US12391768B2, “Antibodies to ticagrelor and methods of use” (MEDIMMUNE LIMITED, priority 2014, dated 2025).

What was measured:
[1] = cited from earlier work
P2Y12 = P2Y12 (Homo sapiens, UniProt Q9H244); settings: cited from earlier work
TICA0212 Fab = assay: HTRF competition binding selectivity assay, TICA0212 His-Fab; design: species or system human; settings: Table 7, DMSO normalised; 5 nM biotinylated ticagrelor, 1 nM His Fab; read-out: IC50 (uM) for inhibition of biotinylated ticagrelor binding to TICA0212 Fab
Procedure: (§1) Total Binding control wells were set up which contained all of the assay components above except that 5 ul assay buffer was added in place of the test selectivity compound addition. Negative Binding control wells were set up which contained all of the assay components included in the Total Binding control wells except that 5ul assay buffer was added in place of the His-Fab addition. Test compound serial titrations were either ½ or ⅓ depending on the particular experiment and top final assay compound concentrations were optimized on a compound specific basis. The concentration of biotinylated ticagrelor and His-Fab was optimized on a Fab specific basis in separate experiments. For the four Fabs investigated at the end of the lead isolation phase (TICA0010, TICA0049, TICA0053 and TICA0072) the final assay reagent concentrations used are set out in Table 1 below:
For the two Fabs investigated at the end of the lead optimization phase (TICA0162 and TICA0212) the final assay reagent concentrations used were 5nM biotinylated ticagrelor and 1 nM His Fab in both cases. […] At the end of the set up procedure that assay was incubated for 3hrs at RT before being read on an Envision plate reader using a standard read protocol. […]

TICA0053 Fab = assay: HTRF competition binding selectivity assay, TICA0053 His-Fab; design: species or system human; settings: first series (Table 2), not DMSO normalised; read-out: IC50 (uM) for inhibition of biotinylated ticagrelor binding to TICA0053 his-Fab
Procedure: as §1
(§2) For the two Fabs investigated at the end of the lead optimization phase (TICA0162 and TICA0212) the final assay reagent concentrations used were 5nM biotinylated ticagrelor and 1 nM His Fab in both cases. […] In order to enable subsequent normalization of data to correct for any such vehicle related effects parallel titrations of DMSO alone were included in most experiments in which the final assay DMSO concentrations mirrored those of the test compound serial dilutions. At the end of the set up procedure that assay was incubated for 3hrs at RT before being read on an Envision plate reader using a standard read protocol.
(§3) The negative ratio value used in the calculation of % Delta F was derived from the Negative Binding control wells. % Delta F values were then used to calculate % Specific Binding values according to the equation below: Specific Binding (%)={(Sample Delta F−Negative Binding Delta F)/(Total Binding Delta F−Negative Binding Delta F)}×100
(§4) For standard calculations of % Specific Binding Total Binding Delta F was taken from Total Binding control wells which contained all of the aforementioned components of the assay but without inclusion of any competing test compound.
(§5) In those experiments where DMSO normalization was applied DMSO normalised % Specific Binding was calculated essentially according to the equation above except that in this case Total Binding Delta F was taken from wells containing all of the components in the Total Binding control wells as well as DMSO at a concentration equivalent to that in the relevant sample well.

TICA0162 Fab = assay: HTRF competition binding selectivity assay, TICA0162 His-Fab; design: species or system human; settings: Table 7, DMSO normalised; 5 nM biotinylated ticagrelor, 1 nM His Fab; read-out: IC50 (uM) for inhibition of biotinylated ticagrelor binding to TICA0162 Fab
Procedure: as §1
as §2, with “protocol. […]” for “protocol.”
as §5

TICA0072 Fab = assay: HTRF competition binding selectivity assay, TICA0072 His-Fab; design: species or system human; settings: second series (Table 3), DMSO normalised; read-out: IC50 in competition binding selectivity studies, TICA0072
Procedure: as §1, §2, §3, §4, §5
(§6) In a second series of experiments further selectivity data was generated for TICA0049 and TICA0072 Fabs in which a subset of four of the twelve compounds listed in FIG. 4 were retested along with ticagrelor, TAM and TIM and several adenosine related compounds. Here, in a refinement to the earlier investigations in Table 2, experiments were designed in order to enable normalisation of percent specific binding values to correct for any non-specific vehicle related effects due to DMSO. Example plotted data from this second series of experiments is shown in FIG. 5A-F along with tabulated IC50 values in Table 3.

TICA0049 Fab = assay: HTRF competition binding selectivity assay, TICA0049 His-Fab; design: species or system human; settings: second series (Table 3), DMSO normalised; read-out: IC50 in competition binding selectivity studies, TICA0049
Procedure: as §1, §2, §3, §4, §5, §6

[2] = Total plasma concentration of ticagrelor and TAM (LC-MS/MS); assay type: in vivo, mice; settings: Example 12
Procedure: Blood samples were collected in tubes with EDTA anticoagulant and centrifuged for 5 min at 10000× g at room temperature to prepare plasma. The plasma concentration of ticagrelor and TAM were determined by protein precipitation and liquid chromatography with tandem mass spectrometry (LC-MS/MS) as described in published method [Sillén H., et al., J Chromatogr B Analyt Technol Biomed Life Sci 2010; 878: 2299-306] with the following deviations. Plasma, 50 μL, was protein precipitated with 180 μl internal standard (D7-ZD6140) in acetonitrile. The liquid chromatographic system and mass spectrometer was an Acquity Ultra Performance LC coupled to a Xevo TQ-S mass spectrometer from Waters. Chromatographic separation was achieved on an Aquity UPLC® BEH C18 column (2.1×50 mm, particle size 1.7 um). Negative electrospray ionization was utilized. Eluent A was water with 10 mmol/L ammonium acetate, pH5 and eluent B was acetonitrile with 10 mmol/L ammonium acetate. Injection volume was 1 to 5 μL and the analytical gradient started with 4% B, increasing to 95% in 1.5 min, remaining until 2.3 min, before returning to initial conditions within 2.4 min followed by 0.3 min re-equilibration. No quality control samples were used in the analysis. The lower limit of quantification (LLOQ) was 0.005 μmol/L and the calibration range was 0.005 to 15.0 μM.
The total plasma concentrations of ticagrelor and TAM in presence of TICA0212/MEDI2452 were determined by adding 1% formic acid (FA: Sample, 1:5) followed by protein precipitation and LC-MS/MS as described above. Formic acid was added to the sample to facilitate dissociation of ticagrelor and TICA0212/MEDI2452.

TICA0010 Fab = assay: HTRF competition binding selectivity assay, TICA0010 His-Fab; design: species or system human; settings: first series (Table 2), not DMSO normalised; read-out: IC50 (uM) for inhibition of biotinylated ticagrelor binding to TICA00l0 his-Fab
Procedure: as §1, §2, §3, §4, §5

[3] = HTRF HTS of periplasmic scFv, Assay 3 versus Assay 1; assay type: binding; settings: 30 nM biotinylated ticagrelor, 50-fold excess (1500 nM) unmodified ticagrelor
From the text: Using known techniques, a human scFv phage display library was used to generate scFv antibodies, and specific scFvs were isolated from the library in a series of repeated selection cycles on biotinylated ticagrelor with deselection on biotinylated adenosine, essentially as described in Lloyd et al 2009 PEDS 22: 159-168, incorporated herein by reference. A number of individual clones from the round 2 and round 3 selection outputs were selected, seFvs were expressed in the bacterial periplasm and screened for specificity in three parallel biochemical assays. […]
Assays 1, 2, and 3 were performed using the same general techniques and strategy. […] HTRF® (homogeneous time resolved fluorescence) is based upon the principle of TR-FRET (time resolved fluorescence resonance energy transfer). […] Provided the donor and acceptor fluorophores are in sufficiently close proximity (approx. <10 nm), the excitation of the Europium cryptate donor (337 nm) results in a transfer of energy to the XL^665 acceptor which in turn emits a fluorescence signal at 665 nm. […]
Raw 665 nm and 620 nm counts were first converted into 665 nm/620 nm ratio values and subsequently results were expressed as Delta F (%) values. Delta F was calculated according to the following equation: Delta F (%)={((sample 665/620 ratio)−(negative 665/620) ratio))/(negative 665/620 ratio)}×100 […]

[4] = molecular target: TICA0159 IgG binding to biotinylated ticagrelor; assay: Second generation HTRF epitope competition assay
Procedure: Purified parent TICA0072 (scFv or Fab) was used as a benchmark in all experiments such that improvements in IC50 measured with optimized variants (scFv or Fab) could be expressed as fold improvements over parent TICA0072. Total Binding Control Wells contained all assay components except that 5 ul assay buffer was added in place of the purified scFv or Fab sample. Negative Binding control wells contained all of the components of the Total Binding control wells except that 5 ul of assay buffer was added in place of the TICA0072 IgG.
In both single point HTS and multipoint IC50 profiling versions of the assay. plates were incubated for 3 hrs at RT before being read on an Envision plate reader using a standard HTRF read protocol in which samples are excited at 337 nm and time resolved fluorescence emission is measured at both 620 nm and 665 nM.
Raw 665 nm and 620 nm counts were used to calculate Delta F (%) and % Specific Binding according to the equations described earlier in Assays 1 and 4, respectively. For multipoint secondary profiling experiments IC50 values were determined using Graphpad Prism software using sigmoidal dose response (variable slope) curve fitting (4 parameter logistic equation).
This assay was used only in multipoint IC50 profiling format (as opposed to HTS format) and was performed essentially identically to the method given in Assay 5 (above) for multipoint IC50 profiling of purified Fab variants in the parent TICA0072 IgG based epitope competition assay. The only difference being that TICA0159 IgG was used in place of TICA0072 IgG at the appropriate point in the assay set up but at the same 16nM final assay concentration. In all other respects this assay was performed exactly as described above in the multipoint secondary profiling version for purified Fab.

Chain of P2Y12 (Q9H244 whole entry): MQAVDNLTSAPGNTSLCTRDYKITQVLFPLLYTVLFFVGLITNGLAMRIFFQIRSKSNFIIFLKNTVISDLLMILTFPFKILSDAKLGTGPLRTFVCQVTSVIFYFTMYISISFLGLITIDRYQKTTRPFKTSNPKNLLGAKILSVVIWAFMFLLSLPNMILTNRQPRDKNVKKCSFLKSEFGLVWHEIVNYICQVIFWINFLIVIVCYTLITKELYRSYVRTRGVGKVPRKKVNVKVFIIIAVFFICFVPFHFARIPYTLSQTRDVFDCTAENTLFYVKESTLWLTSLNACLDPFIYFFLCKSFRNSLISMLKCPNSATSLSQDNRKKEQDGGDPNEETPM

| Molecule | circulating half-life ([1]; human, in vivo) [h] | concentration as % of the parent ticagrelor concentration ([1]; patients on BRILINTA/BRILIQUE) | P2Y12 antagonist activity (P2Y12) | IC50 (TICA0212 Fab) [µM] | IC50 (TICA0053 Fab) [µM] | IC50 (TICA0162 Fab) [µM] | IC50 (TICA0072 Fab) [nM] | IC50 (TICA0049 Fab) [nM] | mean total plasma concentration ([2]; end of ticagrelor infusion 300 μg/kg/min 20 min, mice) [µM] | mean total plasma concentration at time of tail cut ([2]; vehicle treated mice, t=30 minutes) [µM] | IC50 (TICA0010 Fab) [µM] | % inhibition of binding observed in Assay 3 versus Assay 1 [3] [%] | IC50 ([4]; Fab, 16 nM TICA0159 IgG, 1 nM biotinylated ticagrelor) [nM] | Fold Improved ([4]; IC50 relative to parent TICA0072 Fab) |
| --- | --- | --- | --- | --- | --- | --- | --- | --- | --- | --- | --- | --- | --- | --- |
| CCCSc1nc(N[C@@H]2C[C@H]2c2ccc(F)c(F)c2)c2nnn([C@@H]3C[C@H](O)[C@@H](O)[C@H]3O)c2n1 [TAM] | 12 | 30-40% | equally effective | 0.031 | 0.134 | 0.032 | 483 | 366 | 0.3 | 0.6 | 0.124 | – | – | – |
| TICA0072: parent anti-ticagrelor/TAM antibody; VH SEQ ID NO:32, VL SEQ ID NO:37 (antibody, listed as Homo sapiens, V domains shown) VH: QVQLQESGAEVKKPGSSVRVSCKASGGTFDSYSIHWVRQAPGQGLEWMGGIIPAFGTLSSAQDFQARVTISADKSTSTAYMELSGLRSEDTAVYYCARGSHLYDFWSASHPPNDALAIWGQGTLVTVSS VL: QSVVTQPPSVSAAPGQKVTISCSGSNSDIGNNYVSWYQQLPGTAPKLLIYDNNKRPSGIPDRFSGSKSGTSATLAITGLQAGDEADYYCGTWDISLSAGLFGGGTKVTVL | – | – | – | – | – | – | – | – | – | – | – | > 90 | 1710 | 0 |
